Results as given in US7893098B2, “Pyrrole and pyrazole DAAO inhibitors” (Sepracor Inc., priority 2003, dated 2011).

Test system: not listed separately
Test: Rat brain uptake, carotid perfusion
Format: in vivo
Conditions: 30 second perfusion into left hemisphere, PBS pH 7.4; N of 4 rats
From the text: Experiments that evaluate the rat brain penetration of test compounds use a perfusion system where the left carotid artery is cannulated and the branch arteries are tied off. The test compound plus internal controls are perfused for 30 seconds into the left hemisphere in phosphate buffered saline at pH 7.4. The internal controls are atenolol (with low brain uptake) and antipyrine (with high brain uptake). After a 30 second washout with perfusate, the brain is removed surgically. The left hemisphere is homogenized; test compounds (plus internal controls) are extracted from brain homogenate, and analyzed using LC/MS/MS to determine the concentration of test compound and internal controls in the brain.

Structure (SMILES)	Rat Brain Uptake Rate, pmol/g brain/sec [pmol/g brain/sec]
CC(C)CCCc1cc(C(=O)O)n[nH]1 [Compound 18, 5-(4-methylpentyl)-1H-pyrazole-3-carboxylic acid]	17
O=C(O)c1n[nH]c2c1CCC2 [drawing 70]	6

Now from value to molecule:

Rat Brain Uptake Rate, pmol/g brain/sec [pmol/g brain/sec]	Structure (SMILES)
6	O=C(O)c1cc(CCc2ccccc2)[nH]n1 [Compound 21, 5-phenethyl-1H-pyrazole-3-carboxylic acid]
204	O=C(O)c1cc(CCc2ccc(Cl)cc2)c[nH]1 [Compound 39, 4-[2-(4-chlorophenyl)-ethyl]-1H-pyrrole-2-carboxylic acid]

Target: Purified pig DAAO (Sus scrofa, UniProt P00371)
Sequence (P00371 whole entry): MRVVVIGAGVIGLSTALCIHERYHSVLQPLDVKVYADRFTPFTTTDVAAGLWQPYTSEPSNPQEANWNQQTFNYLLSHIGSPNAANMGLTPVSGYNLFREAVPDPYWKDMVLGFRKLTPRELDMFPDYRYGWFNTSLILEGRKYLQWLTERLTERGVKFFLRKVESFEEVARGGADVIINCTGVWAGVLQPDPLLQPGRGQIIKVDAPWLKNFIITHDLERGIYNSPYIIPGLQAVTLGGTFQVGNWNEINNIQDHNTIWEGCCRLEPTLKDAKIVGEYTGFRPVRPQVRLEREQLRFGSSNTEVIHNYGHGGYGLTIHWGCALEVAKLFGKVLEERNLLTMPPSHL
Test: In vitro measurement of DAAO activity (Amplex Red H2O2 / phenylglycine assay)
Format: biochemical
Conditions: read-out: Inhibition of DAAO, IC50
Protocol: Purified pig DAAO, added to a buffered mixture of 50 mM D-Serine produces H202 in stoichiometric amounts for each D-Serine molecule oxidized. H202 production can be monitored with a commercially available dye Amplex Red, which in the presence of H202, is converted to the fluorescent product resorufin. For each described inhibitor, the fluorescence was also measured during additions of 80 μM H202 in the absence of DAAO, to control for artifactual inhibition of the dye conversion, and to quantify the amount of H202 produced. In an alternative assay of DAAO activity, the purified pig DAAO is added to buffered mixture of 1 mM phenylglycine in the presence of compounds. The activity of DAAO is monitored spectrophotometrically by its enzymatic conversion of phenylglycine to benzoylformic acid with optical absorption at 252 nm.
Inhibitors of DAAO's enzymatic cycle were serially diluted to reduce the level of inhibition. The parameters of a non-linear equation were adjusted to fit the resulting series of inhibition levels to extrapolate the concentration of compound where 50% inhibition is achieved (IC50). These numbers are averaged for the number (n) of independent measurements (on separate days) of the inhibition.

Structure (SMILES)	IC50 [µM]
O=C(O)c1cc[nH]n1	< 100
O=C(O)c1n[nH]c2c1CCc1ccccc1-2	> 100
CC1CCc2c(C(=O)O)n[nH]c21 (centres unmarked) [Compound 6, 6-methyl-1,4,5,6-tetrahydrocyclopentapyrazole-3-carboxylic acid]	< 10
O=C(O)c1n[nH]c2c1CCC2 [drawing 44]	< 1
CC(=O)c1c[nH]c(C(=O)O)c1	< 100
COc1ccc(CCc2cc(C(=O)O)n[nH]2)cc1 [Compound 24, 5-[2-(4-Methoxyphenyl)-ethyl]-1H-pyrazole-3-carboxylic acid]	< 1
CC1CCc2c(C(=O)O)n[nH]c2C1 (centres unmarked)	< 100
CC1CCCc2c(C(=O)O)n[nH]c21 (centres unmarked)	< 10
O=C(O)c1n[nH]c2c1CCCCCC2	< 10
Cc1cc(C(=O)O)n[nH]1	< 10
CC(C)CCCc1cc(C(=O)O)n[nH]1 [Compound 18, 5-(4-methylpentyl)-1H-pyrazole-3-carboxylic acid]	< 1
CC1CCCC(C)(C)C1CCc1cc(C(=O)O)n[nH]1 (centres unmarked) [Compound 54, 5-[2-(2,2,6-trimethylcyclohexyl)-ethyl]-1H-pyrazole-3-carboxylic acid]	< 100
CC(C)c1cc(C(=O)O)n[nH]1	< 1
Cc1cc(C)c(C(=O)O)[nH]1	> 100
CCCCCCCCCCC(=O)c1c[nH]c(C(=O)O)c1	< 100
Cc1cc(C(=O)O)no1	< 100
O=C(O)c1n[nH]c2c1COCC2	< 10
O=C(O)c1ccc[nH]1	< 10
O=C(O)c1n[nH]c2c1CCCC2	< 1
O=C(O)c1n[nH]cc1[N+](=O)[O-]	< 1
CC(C)=CCCc1cc(C(=O)O)n[nH]1 [Compound 51, 5-(4-Methylpent-3-enyl)-1H-pyrazole-3-carboxylic acid]	< 1
O=C(O)c1cc2c([nH]1)CCCC2	< 10
O=C(O)c1cc([N+](=O)[O-])[nH]n1	< 1
O=C(O)c1n[nH]c2c1CCCC2C1CCCCC1 (centres unmarked)	< 100
CC1CCc2[nH]nc(C(=O)O)c2C1 (centres unmarked)	< 10
CC(C)CCc1cc(C(=O)O)n[nH]1 [Compound 48, 5-(3-methylbutyl)-1H-pyrazole-3-carboxylic acid]	< 10
CC1(C)CCc2c(C(=O)O)n[nH]c21 [Compound 3, 6,6-Dimethyl-1,4,5,6-tetrahydrocyclopentapyrazole-3-carboxylic acid]	< 10
CC(C)C1CCc2[nH]nc(C(=O)O)c2C1 (centres unmarked)	< 100
O=C(O)c1n[nH]c2c1CCCCC2 [Compound 15, 1,4,5,6,7,8-Hexahydrocycloheptapyrazole-3-carboxylic acid]	< 10

The remaining lines, values ahead:

IC50 [µM]	Structure (SMILES)
> 100	O=C(O)c1ccc(Cc2ccccc2)[nH]1 [Compound 32, 5-benzyl-1H-pyrrole-2-carboxylic acid]
< 1	O=C(O)c1cc(CCc2ccccc2)[nH]n1 [Compound 21, 5-phenethyl-1H-pyrazole-3-carboxylic acid]
< 100	O=C(O)c1cc(CCCc2ccccc2)c[nH]1 [Compound 45, 4-(3-phenylpropyl)-1H-pyrrole-2-carboxylic acid]
< 0.1	O=C(O)c1cc(CCc2ccc(Cl)cc2)c(Br)[nH]1 [Compound 70, 5-bromo-4-[2-(4-chlorophenyl)-ethyl]-1H-pyrrole-2-carboxylic acid]
< 10	O=C(O)c1cc(CCCC2CCCC2)c[nH]1 [Compound 76, 4-(3-Cyclopentylpropyl)-1H-pyrrole-2-carboxylic acid]
< 1	O=C(O)c1cc(CCc2ccc(F)cc2)c[nH]1 [Compound 73, 4-[2-(4-fluorophenyl)-ethyl]-1H-pyrrole-2-carboxylic acid]
< 1	O=C(O)c1cc(COc2ccccc2)[nH]n1 [Compound 42, 5-phenoxymethyl-1H-pyrazole-3-carboxylic acid]
< 10	O=C(O)c1n[nH]c2c1CCCC2Cc1ccccc1 (centres unmarked)
< 1	CC(Cc1cc(C(=O)O)n[nH]1)c1ccccc1 (centres unmarked) [Compound 58, 5-(2-phenylpropyl)-1H-pyrazole-3-carboxylic acid]
< 100	O=C(Cc1ccccc1)c1c[nH]c(C(=O)O)c1
< 10	C[C@@H](Cc1cc(C(=O)O)n[nH]1)c1ccccc1 [Compound 80, (S)-5-(2-phenylpropyl)-1H-pyrazole-3-carboxylic acid]
< 1	CC(Cc1ccccc1)c1cc(C(=O)O)n[nH]1 (centres unmarked) [Compound 62, 5-(1-methyl-2-phenylethyl)-1H-pyrazole-3-carboxylic acid]
< 100	O=C(O)c1ccc(CCc2ccccc2)[nH]1 [Compound 36, 5-phenethyl-1H-pyrrole-2-carboxylic acid]
< 100	O=C(O)c1n[nH]c2c1CC(OCc1ccccc1)CC2 (centres unmarked)
< 100	O=C(Cc1ccc(Cl)cc1)c1c[nH]c(C(=O)O)c1
< 1	O=C(O)c1cc(CCc2ccccc2Br)c[nH]1 [Compound 65, 4-[2-(2-bromophenyl)-ethyl]-1H-pyrrole-2-carboxylic acid]
< 1	O=C(O)c1cc(CCc2ccccc2)c[nH]1
< 100	O=C(O)c1cc(CCc2ccccc2)on1
< 1	O=C(O)c1cc(CCc2ccc(Cl)cc2)n[nH]1 [Compound 69, 5-[2-(4-Chlorophenyl)-ethyl]-1H-pyrazole-3-carboxylic acid]
< 100	O=C(O)c1n[nH]c2c1CCCC2CCc1ccccc1 (centres unmarked)
